From US10993437B2, “Anti-microbial polymer incorporating a quaternary ammonium group” (priority 2013, dated 2021)

What was measured:
Assay type in all cases: cell-based
[1] = test system: Saccharomyces cerevisiae; assay: Antifungal disk susceptibility test, rings of inhibition; conditions: for S. cerevisiae, diameter of ring of inhibition: Sabouraud plate, 18-24 hrs at 37° C., 100 μg of compound per disc, Amphotericin B 50 ug or 20 μg
Method: (§1) Adapted from Messer et al., (2007), this protocol was used to test novel compounds for antifungal properties against yeasts and fungi. Compounds were tested for antifungal activity against pure cultures of Saccharomyces cerevisiae, Candida albicans supplied by Ward's Natural Science Ltd. and Aspergillus niger and Aspergillus fumigatus supplied by […]. (Inverness Medical, Ottawa, Ontario, Canada). All cultures were maintained on Sabouraud agar. […] The cultures of A. niger and A. fumigatus were transferred, using an inoculation loop, to new Sabouraud agar and grown for 48 hrs. at 27° C., and 35° C. respectively, to cause sporulation. Triplicates of all the plates and broth cultures were made in case of error or contamination. Using a sterile swab, and aseptic techniques, the cell suspension of S. cerevisiae, and C. albicans were transferred to Sabouraud agar plates and spread evenly, ensuring that the entire surface was inoculated. They were then left to dry for 10 minutes. […] The 0.2% Tween 80 reduces the hydrophobicity of the conidia, allowing the spores to be readily suspended (Messer et al., 2007). Alternatively two small circles containing fungal growth of the A Niger or A Fumigatus fungi were cut from the agar plates, and using a glass/PTFE tissue homoginzer, were mixed and homogenized with 5 ml of sterile MilliQ water to create a suspension of fungal spores. Using a sterile swab, and aseptic techniques, the spore inocula of A. niger and A. fumigatus were transferred to Sabouraud agar plates and spread evenly, ensuring that the entire surface was inoculated. They were then left to dry for 10 minutes. […] Four antibiotic discs containing different compounds were place equidistant apart on each Sabouraud plate. […] If clear rings of inhibition were present, the diameter was measured twice using a caliper. Halos indicated partial inhibition of growth (Hicks et al., 2008). […] The paper towels were then allowed to dry. After, 5 cm from each edge of the paper towels was cut out (to prevent edge areas where spraying might have been irregular being tested), and from the remaining paper towels, a single hole punch machine was used to punch 6 mm paper discs from each of the paper towels.

[2] = test system: Candida albicans; assay: as above; conditions: for C. albicans, diameter of ring of inhibition: Sabouraud plate, 18-24 hrs at 37° C., 100 μg of compound per disc, Amphotericin B 50 ug or 20 μg
Method: as §1

[3] = test system: Aspergillus fumigatus; assay: as above; conditions: for A. fumigatus, diameter of ring of inhibition: Sabouraud plate, 18-24 hrs at 35° C., 100 μg of compound per disc, Amphotericin B 100 ug or 20 μg
Method: (§2) Adapted from Messer et al., (2007), this protocol was used to test novel compounds for antifungal properties against yeasts and fungi. Compounds were tested for antifungal activity against pure cultures of Saccharomyces cerevisiae, Candida albicans supplied by Ward's Natural Science Ltd. and Aspergillus niger and Aspergillus fumigatus supplied by […]. (Inverness Medical, Ottawa, Ontario, Canada). All cultures were maintained on Sabouraud agar. […] The cultures of A. niger and A. fumigatus were transferred, using an inoculation loop, to new Sabouraud agar and grown for 48 hrs. at 27° C., and 35° C. respectively, to cause sporulation. Triplicates of all the plates and broth cultures were made in case of error or contamination. Using a sterile swab, and aseptic techniques, the cell suspension of S. cerevisiae, and C. albicans were transferred to Sabouraud agar plates and spread evenly, ensuring that the entire surface was inoculated. They were then left to dry for 10 minutes. […] The 0.2% Tween 80 reduces the hydrophobicity of the conidia, allowing the spores to be readily suspended (Messer et al., 2007). Alternatively two small circles containing fungal growth of the A Niger or A Fumigatus fungi were cut from the agar plates, and using a glass/PTFE tissue homoginzer, were mixed and homogenized with 5 ml of sterile MilliQ water to create a suspension of fungal spores. Using a sterile swab, and aseptic techniques, the spore inocula of A. niger and A. fumigatus were transferred to Sabouraud agar plates and spread evenly, ensuring that the entire surface was inoculated. They were then left to dry for 10 minutes. Amphotericin B (100 μg) in acetone was used as a control. Four antibiotic discs containing different compounds were place equidistant apart on each Sabouraud plate. […] If clear rings of inhibition were present, the diameter was measured twice using a caliper. Halos indicated partial inhibition of growth (Hicks et al., 2008). […] The paper towels were then allowed to dry. After, 5 cm from each edge of the paper towels was cut out (to prevent edge areas where spraying might have been irregular being tested), and from the remaining paper towels, a single hole punch machine was used to punch 6 mm paper discs from each of the paper towels.

[4] = test system: Aspergillus niger; assay: as above; conditions: for A. niger, diameter of ring of inhibition: Sabouraud plate, 48 hrs at room temperature, 100 μg of compound per disc, Amphotericin B 100 ug or 20 μg
Method: as §2

[5] = test system: Proteus mirabilis/hauseri; assay: Antibiotic disk susceptibility test, rings of inhibition; conditions: for P. hauseri, diameter of ring of inhibition: Mueller-Hinton plate, 18-24 hrs at 37° C., 100 μg of compound per disc, control discs 10 or 30 μg; for P. hauseri, diameter of ring of inhibition, antimicrobial paper towels: 6 mm paper discs punched from paper towels, antibiotic control discs 10 or 30 ug
Method: (§3) Compounds were tested for antibacterial activity, as described in Ma et al. (2011), against pure cultures of Escherichia coli, Pseudomonas aeruginosa, Bacillus cereus, Proteus mirabilis/hauseri, and Staphylococcus aureus, supplied by Ward's Natural Science Ltd. (St. Catherines, Ontario, Canada). All cultures were maintained on Tryptic Soy agar. These cultures were then transferred using an inoculation loop to 10 mL of Tryptic soy broth, and grown at 37° C. for 24 hours. Triplicates of plate and broth cultures were made in case of error or contamination. Using a sterile swab, and aseptic techniques, the bacterial broth inocula were transferred to Mueller-Hinton plates and spread evenly, ensuring that the entire surface was inoculated. They were then left to dry for 3-5 minutes. The following control discs were used: Penicillin (10 μg), Tetracycline (30 μg), Chloramphenicol (30 μg), and Ampicillin (10 μg). Four antibiotic discs containing different compounds were placed equidistant from each other on a Mueller-Hinton plate. […] If clear rings of inhibition were present, the diameter was measured twice using a caliper. […] The paper towels were then allowed to dry. After, 5 cm from each edge of the paper towels was cut out (to prevent edge areas where spraying might have been irregular being tested), and from the remaining paper towels, a single hole punch machine was used to punch 6 mm paper discs from each of the paper towels.

[6] = test system: Bacillus cereus; assay: as above; conditions: for B. cereus, diameter of ring of inhibition: Mueller-Hinton plate, 18-24 hrs at 37° C., 100 μg of compound per disc, control discs 10 or 30 μg; for B. cereus, diameter of ring of inhibition, antimicrobial paper towels: 6 mm paper discs punched from paper towels, antibiotic control discs 10 or 30 ug
Method: as §3

[7] = test system: Staphylococcus aureus; assay: as above; conditions: for S. aureus, diameter of ring of inhibition: Mueller-Hinton plate, 18-24 hrs at 37° C., 100 μg of compound per disc, control discs 10 or 30 μg; for S. aureus, diameter of ring of inhibition, antimicrobial paper towels: 6 mm paper discs punched from paper towels, antibiotic control discs 10 or 30 ug
Method: as §3

[8] = test system: Pseudomonas aeruginosa; assay: as above; conditions: for P. aeruginosa, diameter of ring of inhibition: Mueller-Hinton plate, 18-24 hrs at 37° C., 100 μg of compound per disc, control discs 10 or 30 μg
Method: as §3

[9] = test system: Escherichia coli; assay: as above; conditions: for E. coli, diameter of ring of inhibition: Mueller-Hinton plate, 18-24 hrs at 37° C., 100 μg of compound per disc, control discs 10 or 30 μg; for E. coli, diameter of ring of inhibition, antimicrobial paper towels: 6 mm paper discs punched from paper towels, antibiotic control discs 10 or 30 ug
Method: as §3

[10] = 6 mm paper discs punched from paper towels, PAA-BZ-H 100 μg of solution onto paper discs, Amphotericin B 20 ug

## CCCCCCCCCCCCCC[N+](C)(C)Cc1ccccc1.[Cl-] [Compound 15, Benzyldimethyltetradecylammonium chloride]
[1]
  S. cerevisiae, diameter of ring of inhibition: 11.33
[2]
  C. albicans, diameter of ring of inhibition: 7.48
[3]
  A. fumigatus, diameter of ring of inhibition: 8.13
[4]
  A. niger, diameter of ring of inhibition: 10.97
[5]
  P. hauseri, diameter of ring of inhibition: 12.63
[6]
  B. cereus, diameter of ring of inhibition: 14.30
[7]
  S. aureus, diameter of ring of inhibition: 13.43
[8]
  P. aeruginosa, diameter of ring of inhibition: 8.13
[9]
  E. coli, diameter of ring of inhibition: 12.70

## C[C@@H]1[C@H](O)[C@@H](C)/C=C/C=C/C=C/C=C/C=C/C=C/C=C/[C@H](O[C@@H]2O[C@H](C)[C@@H](O)[C@H](N)[C@@H]2O)C[C@@H]2O[C@](O)(C[C@@H](O)C[C@@H](O)[C@H](O)CC[C@@H](O)C[C@@H](O)CC(=O)O[C@H]1C)C[C@H](O)[C@H]2C(=O)O [Compound 13, Amphotericin B]
[1]
  S. cerevisiae, diameter of ring of inhibition: 8.39
[2]
  C. albicans, diameter of ring of inhibition: 9.35
[3]
  A. fumigatus, diameter of ring of inhibition: 11.19
[4]
  A. niger, diameter of ring of inhibition: 17.86

## O=C(N[C@H](CO)[C@H](O)c1ccc([N+](=O)[O-])cc1)C(Cl)Cl [Compound 11, Chloramphenicol]
[5]
  P. hauseri, diameter of ring of inhibition, antimicrobial paper towels: 16.5
  P. hauseri, diameter of ring of inhibition: 16.50
[6]
  B. cereus, diameter of ring of inhibition, antimicrobial paper towels: 26.3
  B. cereus, diameter of ring of inhibition: 26.30
[7]
  S. aureus, diameter of ring of inhibition, antimicrobial paper towels: 17.7
  S. aureus, diameter of ring of inhibition: 17.70
[9]
  E. coli, diameter of ring of inhibition, antimicrobial paper towels: 32.25
  E. coli, diameter of ring of inhibition: 32.25

## CN(C)[C@@H]1C(O)=C(C(N)=O)C(=O)[C@@]2(O)C(O)=C3C(=O)c4c(O)cccc4[C@@](C)(O)[C@H]3C[C@@H]12 [Compound 10, Tetracycline]
[5]
  P. hauseri, diameter of ring of inhibition, antimicrobial paper towels: 29.5
  P. hauseri, diameter of ring of inhibition: 29.50
[6]
  B. cereus, diameter of ring of inhibition, antimicrobial paper towels: 20.3
  B. cereus, diameter of ring of inhibition: 20.30
[7]
  S. aureus, diameter of ring of inhibition, antimicrobial paper towels: 23.3
  S. aureus, diameter of ring of inhibition: 23.30
[8]; 6 mm paper discs punched from paper towels, antibiotic control discs 10 or 30 ug
  P. aeruginosa, diameter of ring of inhibition, antimicrobial paper towels: 10.75
[8]
  P. aeruginosa, diameter of ring of inhibition: 10.75
[9]
  E. coli, diameter of ring of inhibition, antimicrobial paper towels: 20.45
  E. coli, diameter of ring of inhibition: 20.45

## CC1(C)S[C@@H]2[C@H](NC(=O)[C@H](N)c3ccccc3)C(=O)N2[C@H]1C(=O)O [Compound 12, Ampicillin]
[5]
  P. hauseri, diameter of ring of inhibition, antimicrobial paper towels: 19
  P. hauseri, diameter of ring of inhibition: 19.00
[6]
  B. cereus, diameter of ring of inhibition, antimicrobial paper towels: 13.5
  B. cereus, diameter of ring of inhibition: 13.50
[7]
  S. aureus, diameter of ring of inhibition, antimicrobial paper towels: 28.8
  S. aureus, diameter of ring of inhibition: 28.80
[9]
  E. coli, diameter of ring of inhibition, antimicrobial paper towels: 17.13
  E. coli, diameter of ring of inhibition: 17.13

## Penicillin [Compound 9]
[5]
  P. hauseri, diameter of ring of inhibition, antimicrobial paper towels: 11
  P. hauseri, diameter of ring of inhibition: 11.00
[7]
  S. aureus, diameter of ring of inhibition, antimicrobial paper towels: 31.5
  S. aureus, diameter of ring of inhibition: 31.50
[9]
  E. coli, diameter of ring of inhibition, antimicrobial paper towels: 15.91
  E. coli, diameter of ring of inhibition: 15.91

## C[C@@H]1[C@H](O)[C@@H](C)/C=C/C=C/C=C/C=C/C=C/C=C/C=C/[C@H](O[C@@H]2O[C@H](C)[C@@H](O)[C@H](N)[C@@H]2O)C[C@@H]2O[C@](O)(C[C@@H](O)C[C@@H](O)[C@H](O)CC[C@@H](O)C[C@@H](O)CC(=O)O[C@H]1C)C[C@H](O)[C@H]2C(=O)O [Compound 14, Amphotericin B]
[1]; [10]
  S. cerevisiae, diameter of ring of inhibition, antimicrobial paper towels: 13.4
[1]
  S. cerevisiae, diameter of ring of inhibition: 10.80
[2]; [10]
  C. albicans, diameter of ring of inhibition, antimicrobial paper towels: 9.7
[2]
  C. albicans, diameter of ring of inhibition: 11.00
[3]; [10]
  A. fumigatus, diameter of ring of inhibition, antimicrobial paper towels: 9.4
[3]
  A. fumigatus, diameter of ring of inhibition: 7.80
[4]; [10]
  A. niger, diameter of ring of inhibition, antimicrobial paper towels: 8.7
[4]
  A. niger, diameter of ring of inhibition: 8.80
